Source: patent publication US9700044B2, “Symmetrical marinopyrrole derivatives as potential antibiotic agents” (priority 2013, dated 2017)
≈ marks a conversion by molar mass, not a printed value. Where “and” joins values, the source holds several entries; their conditions need not be identical. Equal values may be shown once. Read-outs that look alike come from different tables or passages of the source.

Columns and labels:
Format in all cases: cell-based
[1] = tested on: Methicillin-resistant Staphylococcus aureus with the mec A gene and PBP2a (WHO-31); assay: MIC by agar dilution, MRSA (WHO-31); conditions: WHO-31
Text: (§1) A panel of multiple resistance Gram-positive and Gram-negative pathogens listed in Tables 1 and 2 was used to evaluate the antimicrobial activity of marinopyrrole derivatives (Chart 1) with vancomycin as a positive control. Except for those marked with WHO, all pathogens were isolated between 2008 and 2010 in hospitals located in Beijing; Guangzhou; Sichuan, Shandong and Jiangsu Province. Determination of the minimum inhibitory concentration (MIC) was done by the guidelines of the Clinical and Laboratory Standards Institute (Clinical and Laboratory Standards Institute, Performance standards for antimicrobial susceptibility testing, seventeenth informational supplement. 2007, 27, M100-S17). The susceptibility tests of a bacterial strain to a marinopyrrole derivative were performed by an agar dilution method. Briefly, each sterile petri dish contained a final volume of 15 mL comprising 1 mL of a marinopyrrole derivative and 14 mL of Mueller-Hinton broth. The concentrations of a marinopyrrole derivative are 128, 64, 32, 16, 8, 4, 2, 1, 0.5, 0.25, 0.125, 0.06, 0.03, 0.015 and 0.008 μg/mL. The petri dish containing the broth with different concentration of antibiotics was first inoculated with 10^5 CFU/mL (Denley A400, United Kingdom) and the culture was then incubated with shaking at 35-37° C. for 18-20 h. The potency of the compound was determined and expressed as minimum inhibitory concentration (MIC) in μg/mL. The MIC was determined as the lowest concentration of antibiotic that inhibited visible bacterial growth.

[2] = tested on: Methicillin-resistant Staphylococcus aureus (MRSA); assay: MIC by agar dilution, MRSA clinical isolates; conditions: for MIC: MRSA, data from 8 isolates
Text: as §1

[3] = tested on: Methicillin-resistant Staphylococcus epidermidis (MRSE); assay: MIC by agar dilution, MRSE clinical isolates; conditions: for MIC: MRSE
Text: as §1

[4] = tested on: Moderately vancomycin-resistant Enterococci faecium with the VanA gene (WHO-3); assay: MIC by agar dilution, VRE (WHO-3); conditions: WHO-3
Text: as §1

[5] = tested on: Methicillin-susceptible Staphylococcus aureus (MSSA); assay: MIC by agar dilution, MSSA clinical isolates; conditions: for MIC: MSSA, data from 8 isolates
Text: as §1

[6] = tested on: Oxacillin-resistant Staphylococcus aureus (WHO-25); assay: MIC by agar dilution, ORSA (WHO-25); conditions: WHO-25
Text: as §1

[7] = Staphylococcus aureus, Table 2, read-out: MIC
[8] = Staphylococcus epidermidis, Table 2, data from 4 isolates, read-out: MIC
[9] = Enterococcus, Table 2, read-out: MIC

Row | Structure (SMILES) | MIC ([1]; Table 2) [µg/mL] | MIC ([2]; Table 2) [µg/mL] | MIC ([3]; Table 2, data from 4 isolates) [µg/mL] | MIC ([4]; Table 2) [µg/mL] | MIC ([5]; Table 2) [µg/mL] | MIC ([6]; Table 2) [µg/mL] | MIC [1, 7] [µg/mL] | MIC [2, 7] [µg/mL] | MIC [3, 8] [µg/mL] | MIC [4, 9] [µg/mL] | MIC [5, 7] [µg/mL] | MIC [6, 7] [µg/mL] | other results
1 | COc1ccc(CSc2ccc(C(=O)c3[nH]c(Cl)c(Cl)c3-n3c(C(=O)c4ccc(SCc5ccc(OC)cc5)cc4O)cc(Cl)c3Cl)c(O)c2)cc1 [Compound 27] | >64 | >64 | 8 to 64 | 16 (≈ 19.6 µM) | >64 | >64 | – | – | – | – | – | – | –
2 | CCOC(=O)CS(=O)(=O)c1ccc(C(=O)c2[nH]c(Cl)c(Cl)c2-n2c(C(=O)c3ccc(S(=O)(=O)CC(=O)OCC)cc3O)cc(Cl)c2Cl)c(O)c1 [Compound 28] | >64 | >64 | 8 (≈ 9.87 µM) | 4 (≈ 4.94 µM) | >64 | 32 (≈ 39.5 µM) | – | – | – | – | – | – | –
3 | O=C(O)CSc1ccc(C(=O)c2[nH]c(Cl)c(Cl)c2-n2c(C(=O)c3ccc(SCC(=O)O)cc3O)cc(Cl)c2Cl)c(O)c1 [Compound 31] | – | – | – | – | – | – | > 64 | > 64 | 32 to 64 (≈ 46.4 to 92.7 µM) | 32 (≈ 46.4 µM) | > 64 | > 64 | –
4 | O=C(O)CS(=O)(=O)c1ccc(C(=O)c2[nH]c(Cl)c(Cl)c2-n2c(C(=O)c3ccc(S(=O)(=O)CC(=O)O)cc3O)cc(Cl)c2Cl)c(O)c1 [Compound 32] | – | – | – | – | – | – | > 64 | > 64 | 8 to 64 (≈ 10.6 to 84.8 µM) | 64 (≈ 84.8 µM) | > 64 | > 64 | –
5 | O=C(c1ccc(C(F)(F)F)cc1O)c1[nH]c(Cl)c(Cl)c1-n1c(C(=O)c2ccc(C(F)(F)F)cc2O)cc(Cl)c1Cl [Compound 41, (4,4′,5,5′-tetrachloro-1′H-1,3′-bipyrrole-2,2′-diyl)bis((2-hydroxy-4-(trifluoromethyl)phenyl)methanone)] | – | – | – | – | – | – | 1 (≈ 1.55 µM) | 0.125 to 0.25 (≈ 0.193 to 0.387 µM) | < 0.008 | 0.5 (≈ 0.774 µM) | 0.125 (≈ 0.193 µM) | 1 (≈ 1.55 µM) | MIC ([1]; Table 3): 1 µg/mL (≈ 1.55 µM); MIC ([2]; Table 3): 0.125 to 0.25 µg/mL; fold more potent than marinopyrrole A ([2]; against MRSA): 2-4 fold and 4 fold; fold more potent than vancomycin ([2]; against MRSA): 2-4 fold and 4-8 fold; MIC ([3]; Staphylococcus epidermidis, Table 3, data from 4 isolates, read-out: MIC): < 0.008 µg/mL; MIC ([3]; Staphylococcus epidermidis, against MRSE, read-out: MIC): 0.008 µg/mL (≈ 0.0124 µM); fold more potent than marinopyrrole A ([3]; against MRSE): > 31 fold and 31 fold; fold more potent than vancomycin ([3]; against MRSE): > 62 fold and 63-125 fold; MIC ([4]; Table 3): 0.5 µg/mL (≈ 0.774 µM); MIC ([5]; Table 3): 0.125 µg/mL (≈ 0.193 µM); fold more potent than marinopyrrole A ([5]; against MSSA): 4 fold; fold more potent than vancomycin ([5]; against MSSA): 8 fold; MIC ([6]; Table 3): 1 µg/mL (≈ 1.55 µM)

Now from value to molecule, other results behind:

Row | MIC ([1]; Table 2) [µg/mL] | MIC ([2]; Table 2) [µg/mL] | MIC ([3]; Table 2, data from 4 isolates) [µg/mL] | MIC ([4]; Table 2) [µg/mL] | MIC ([5]; Table 2) [µg/mL] | MIC ([6]; Table 2) [µg/mL] | MIC [1, 7] [µg/mL] | MIC [2, 7] [µg/mL] | MIC [3, 8] [µg/mL] | MIC [4, 9] [µg/mL] | MIC [5, 7] [µg/mL] | MIC [6, 7] [µg/mL] | Structure (SMILES) | other results
6 | >64 | >64 | 8 to 32 | 16 (≈ 21.2 µM) | >64 | >64 | – | – | – | – | – | – | O=C(c1ccc(SCc2ccccc2)cc1O)c1[nH]c(Cl)c(Cl)c1-n1c(C(=O)c2ccc(SCc3ccccc3)cc2O)cc(Cl)c1Cl [Compound 26, (4,4′,5,5′-Tetrachloro-1′H-1,3′-bipyrrole-2,2′-diyl)bis(((2-hydroxy-4-benzylthio)phenyl)methanone)] | –
7 | 64 (≈ 78.2 µM) | >64 | 32 (≈ 39.1 µM) | 8 (≈ 9.77 µM) | >64 | 32 (≈ 39.1 µM) | – | – | – | – | – | – | O=C(c1ccc(S(=O)(=O)Cc2ccccc2)cc1O)c1[nH]c(Cl)c(Cl)c1-n1c(C(=O)c2ccc(S(=O)(=O)Cc3ccccc3)cc2O)cc(Cl)c1Cl [Compound 29, (4,4′,5,5′-Tetrachloro-1′H-1,3′-bipyrrole-2,2′-diyl)bis(((2-hydroxy-4-benzylsulfonyl)phenyl)methanone)] | –
8 | >64 | >64 | 2 to 16 | >64 | >64 | >64 | – | – | – | – | – | – | COc1ccc(CS(=O)(=O)c2ccc(C(=O)c3[nH]c(Cl)c(Cl)c3-n3c(C(=O)c4ccc(S(=O)(=O)Cc5ccc(OC)cc5)cc4O)cc(Cl)c3Cl)c(O)c2)cc1 [Compound 30] | –
